“Also recorded” adds a separate entry of the source.
What was measured:
[1] = Drug content of PLGA pellets; format: physicochemical
Procedure: Drug-loaded PLGA pellets were made by the hot-melt extrusion method (Leelakanok et al., […]; Danyuo et al., 2017). The goal was to load the maximum amount of drug possible in the pellets, which varies depending on the physical and chemical properties of the drugs and their behavior during the hot melt extrusion process. The maximum doses carried in PLGA pellets were 120±3.6 μg SSZ/mg pellet, 126±5 μg BAPN/mg pellet, and 250±3.2 μg CHP/mg pellet. In vitro tests confirmed the drugs and pellets were not cytotoxic (FIG. 40).
To determine the drug content of the pellets, the pellets were individually dissolved in chloroform (500 μL) and then mixed with 1 mL water to let the active ingredient migrate to the aqueous phase for at least 30 minutes. Drug elution profiles were characterized in vitro prior to implantation. Elution was measured by incubation of the pellets in phosphate buffered saline (PBS) at 37° C. in a shaking incubator set to 300 rpm (FIGS. 30B, C, and D) (Leelakanok et al., 2018; Danyuo et al., 2017). At each time point, PBS was removed from the pellets and replaced with fresh PBS. The amount of BAPN released at each time point was determined using a Fluorescamine assay followed by fluorescent spectroscopy (excitation wavelength: 390 nm, emission wavelength: 475 nm). The amount of CHP released at each time point was determined by hydroxyproline assay with spectrophotometric detection at 560 nm. The amount of SSZ released at each time point was determined using UV spectroscopy at 359 nm.

stifle joint stiffness = assay: Flexion-extension testing, rabbit stifle joint immobilization model; format: in vivo; conditions: 8 weeks after pellet implantation; for Maximum torque (joint stiffness): versus blank pellet control
Text: (§1) The minimal number of animals was used to assess the specific aims of this study. Eight-rabbits were included in each of the treatment groups. […] Non-immobilized, untreated (normal) joints were included to provide normative baselines for joint mobility and histologic outcomes. The study included this normal group, as well as an immobilized group implanted with blank pellets (control), and immobilized groups treated with BAPN-, CHP-, or SSZ-loaded pellets. Joints were immobilized for 8 weeks to establish arthrofibrosis/capsule contracture as previously described (Nesterenko et al., 2009). Kirschner-wires (K-wires) were then removed and the various pellets implanted in the joint. After another 8 weeks the animals were euthanized, and the joints immediately tested for stiffness in extension and anterior-posterior (A-P) laxity. Capsule tissues were harvested for histology to evaluate in situ α-SMA expression and intima thickness, and for in vitro quantitation of cellular contractile activity and α-SMA expression.
Flexion-extension testing of normal and fibrotic joints was performed immediately after euthanasia, when limbs were disarticulated at the hip, stripped of skin and muscle, and fastened securely to a custom testing device equipped with a stepper motor and a 10 N load cell and controlled by a computer with a custom LabVIEW (National Instruments)-based program (FIG. 38) (Hildebrand et al., 2004; Nesterenko et al., 2009). Starting at 10° of extension, the limbs were driven to 170° of extension, and then returned to the starting position at a rotational velocity of 5°/s while continuously recording load and position. The starting extension angle was measured using a digital protractor (Barry Wixey Development) (FIG. 39). The peak torque at maximum extension (N-m) and dissipated energy (mJ) were derived as measures of joint stiffness. The increased hysteresis in immobilized joints arises from posterior capsule stiffening, which restricts extension, but not flexion.

[2] = tested on: joint capsule fibroblasts (JCFs); assay: Collagen gel compaction assay with JCFs from treated joints; format: cell-based, rabbit; conditions: for Compaction rate: first 12 hours of incubation, versus control; for Maximum compaction at 48 hours: cells from immobilized treated joints versus control joints
Procedure: (§2) Capsule tissues were harvested and transferred to a T-75 flask with 15 mL of Dulbecco's Modified Eagle Medium/Ham's Formula-12 Nutrient Mixture (DMEM/F-12) media containing 10% fetal bovine serum (FBS), 1% Penn Strep, and 1% Amphotericin B, and incubated at 37° C. in a 5% O2, 5% CO2 atmosphere for about 5 days to allow cells to migrate out of the tissue and adhere to the plate. The JCFs were cultured until confluent (about 2 weeks) before analysis.
Collagen gel compaction assays were used to determine the contractile activity of JCFs isolated from variously treated rabbits (Yuda & McCulloch, 2018). Collagen gels were produced by combining 10×PBS containing phenol red, 1N NaOH, and rat tail type I collagen (2 mg/mL) (Invitrogen), and JCFs to give a final cell concentration of 1×10^6 cells/mL. Five hundred μL of the collagen gel mixture was added to each well in a 24-well plate and allowed to polymerize for 30 minutes in an incubator. After 30 minutes, 500 μL of DMEM containing 10% FBS and 50 μg/mL ascorbic acid was added to each well. The plates were then incubated for 24 hours to allow the cells to generate a state of isometric tension. After 24 hours, the medium was replaced with 500 μL of fresh DMEM containing 10% FBS and ascorbic acid. After 48 hours, the gels were detached from the walls of the wells using a sterile spatula to allow the cells to freely compact the gels. Images were acquired over the next 48 hours, and the changes in gel cross sectional area were measured with ImageJ.
DNA assays were used to control for well-well variations in cell numbers that could affect the rate and extent of gel compaction. After 48 hours of compaction, the medium was aspirated and the gels were washed with PBS thrice. Five hundred μL of 0.25 mg/mL collagenase was added and the plates incubated at 37° C. overnight. Cell pellets were collected by centrifuging at 500 g for 10 minutes. The supernatants were discarded and the pellets frozen at −80° C. overnight. After thawing at room temperature, the pellets were suspended in 1.0 mL of RNAse/DNAse-free water and then sonicated for 30 minutes. DNA concentrations were measured using 0.2 μg/mL of Hoechst 33342 in 10×TNE buffer (100 mM Tris, 2.0 M NaCl, and 10 mM EDTA at pH 7.4) with excitation and emission wavelengths at 360 nm and 460 nm respectively with calf thymus DNA as a standard. A calibration curve was generated to relate DNA concentration to the number of JCFs in the cultures.

α-SMA expression in JCFs = assay: α-SMA immunostaining of JCFs from treated joints; format: cell-based, rabbit; conditions: versus control
Procedure: as §2
JCFs were seeded at a density of 10,000 cells per […] on UV-sterilized glass coverslips. After 48 hours, the medium was discarded and the samples were washed with Dulbecco's PBS (DPBS). The samples were fixed in 4% paraformaldehyde for 1 hour and then rinsed thrice with DPBS. The cells were then permeabilized with 0.5% Triton X for 5 minutes at room temperature and blocked with 10% goat serum for 30 minutes. The samples were then incubated with an anti-α-SMA mouse monoclonal antibody (Abcam) at a 1:100 dilution in DPBS overnight at 4° C. After washing in DPBS, the cells were blocked with goat serum for 30 minutes at 37° C. and then incubated with a fluorophore-conjugated goat anti-mouse IgG secondary antibody (488 excitation) (Life Technologies) at a 1:100 dilution for 30 minutes at 37° C. Cells were then washed thrice with DPBS, incubated with phalloidin at a 1:100 dilution for 30 minutes at 37° C., and then mounted with 4′,6-diamidino-2-phenylindole (DAPI)-containing mounting medium. Stained sections were imaged using an Olympus FV1000 confocal microscope. Percent positive α-SMA (immunostained/DAPI-stained×100) was evaluated in at least 4 microscope fields using ImageJ.

normal wound healing = conditions: therapeutic dose levels; cited from earlier work
[3] = tested on: fibrosis in a rat stifle joint immobilization model; conditions: in vivo; cited from earlier work
ACL function = assay: Drawer test (A-P laxity), rabbit stifle joint immobilization model; format: in vivo; conditions: 8 weeks after pellet implantation; versus control
Text: as §1, with “After another 8 weeks the animals were euthanized, and the joints immediately tested for stiffness in extension and anterior-posterior (A-P) laxity.” left out
After flexion-extension testing, a custom loading fixture was used to assess sagittal-plane laxity (drawer test), which is related to cruciate ligament integrity (Tochigi et al., 2011). […] Force and displacement data were continuously recorded through the sequence of tests, which consisted of three cycles to adjust leg placement for neutral starting position, followed by three cycles of data collection. […]

synovial intima = assay: Capsule histology, synovial intimal thickness; format: in vivo, rabbit; conditions: immobilization-induced increase, versus control
Text: as §1
Portions of the posterior capsule were fixed in 10% neutral buffered formalin, and then processed for paraffin histology. […] Stained slides were imaged using an Olympus VS110 Virtual Microscope System, and intimal thickness was quantified at 5 random areas in the synovial intima using ImageJ.

[4] = tested on: PTOA after intra-articular fracture; assay: Porcine intra-articular fracture (IAF) model; format: in vivo, Yucatan minipig; conditions: 6 months post-IAF; intra-articular injection, 2.5 mM; anatomically-reduced joints
Text: Yucatan Minipig Intra-articular Fracture Model. The Yucatan minipig model was developed to create an IAF of a reproducible severity without arthrotomy (Goetz et al., 2015). Under general anesthesia, an antero-medial approach to the hock joint, which is analogous to the human ankle joint, is made without disrupting the joint capsule. […] A stress-rising saw cut is made through the anterior tibial cortex, stopping 1-2 mm proximal to the subchondral bone. Two drill holes are made proximal to the saw cut into which a plate with a ball-joint is press fit. This ball joint interfaces with the instrumented sled on our impaction pendulum to rigidly support the tibia. The pendulum delivers a 40 J impact to the impaction tripod, driving the talus against the distal tibia causing a fracture of the distal tibia that is guided by the stress-rising saw cut. The result is a fracture fragment that consists of the anterior third of the distal tibial articular surface which is fixed using standard open reduction and internal fixation (ORIF) techniques (FIG. 12). […] In this study it is determined if lubricin gene therapy is an effective adjunct to amobarbital at the later time point, with or without residual incongruity; thus, all animals in this study survive to 12 months post-fracture. […]

[5] = tested on: PTOA after intra-articular fracture; conditions: 12 months post-IAF; cited from earlier work

| SMILES | Maximum dose carried in PLGA pellets [1] | Maximum torque (joint stiffness) (stifle joint stiffness) | Compaction rate [2] | Percent α-SMA positive (α-SMA expression in JCFs) | Effect on normal wound healing (normal wound healing) | Maximum compaction at 48 hours [2] | Maximum compaction at 48 hours ([2]; listed as beta-aminopropionitrile) | Development of fibrosis [3] | Maximum torque (joint stiffness) (stifle joint stiffness; listed as sulfasalazine) | Dissipated energy (stifle joint stiffness; versus control) | Anterior drawer stiffness / A-P laxity (ACL function) | Synovial intimal thickness (synovial intima) | Synovial intimal thickness (synovial intima; listed as sulfasalazine) | Maximum compaction at 48 hours ([2]; listed as Sulfasalazine) | Percent α-SMA positive (α-SMA expression in JCFs; listed as sulfasalazine) | PTOA progression at 6 months [4] | PTOA progression at 12 months [5] |
| --- | --- | --- | --- | --- | --- | --- | --- | --- | --- | --- | --- | --- | --- | --- | --- | --- | --- |
| O=C(O)[C@@H]1C[C@@H](O)CN1 (relative stereo) [CHP, Cis-hydroxyproline] | 250±3.2 μg CHP/mg pellet | Neither BAPN nor CHP had significant effects | somewhat lower than control | only slightly lower than control | Neither CHP nor BAPN retarded normal wound healing | – | – | – | – | – | – | – | – | – | – | – | – |
| N#CCCN [BAPN, beta-amino propionitrile] | 126±5 μg BAPN/mg pellet | Neither BAPN nor CHP had significant effects | somewhat lower than control | nearly significantly lower | Neither CHP nor BAPN retarded normal wound healing | significantly lower | significantly inhibited this effect | prevented the development of fibrosis | – | – | – | – | – | – | – | – | – |
| O=C(O)c1cc(/N=N/c2ccc(S(=O)(=O)Nc3ccccn3)cc2)ccc1O [SSZ, Sulfasalazine] | 120±3.6 μg SSZ/mg pellet | significantly less stiff than controls | significantly lower compaction rate | significantly lower than control | – | significantly lower | – | – | reduced stiffness | significantly reduced | significantly stiffer than controls | inhibited significantly | significantly lower than control | significantly inhibited this effect | significantly higher in control versus normal (p=0.0021) and versus sulfasalazine | – | – |
| CCC1(CCC(C)C)C(=O)NC(=O)NC1=O [amobarbital] | – | – | – | – | – | – | – | – | – | – | – | – | – | – | – | dramatically forestalled the progression of PTOA; also recorded: highly effective in preventing changes | moderate degenerative changes were observed; also recorded: less effective |
